Test results published in patent US8765464B2, “Kit for culturing cells comprising tube with flat wall, extracellular matrix and culture medium” (Kurashiki Boseki Kabushiki Kaisha, priority 2001, dated 2014).
Counter-ions that a name gives are not always drawn.

Key:
[1] = system: C-1, A-549, MKN-28, HFL-1, WI-38 cell lines and Lung-k primary lung cancer cells; experiment: Confirmation test of cell toxicity according to vancomycin amount: cell proliferativity in proliferative culture step; assay type: cell-based, human; details: vancomycin not more than 3.0 mg/ml added in the preliminary culture step; after 7 days culture
Text: (§1) As to the test material and the number of cells as seeded (test material/number of cells as seeded), the following were used: • C-1 (human colon cancer cell line)/1×10^5 cells/well • A-549 (human lung cancer cell line)/1×10^5 cells/well • MKN-28 human stomach cancer cell line)/1×10^5 cells/well • HFL-1 and WI-38 (human fibroblast cells line)/1×10^5 cells/well • Lung-k human primary lung cancer cells)/5×10^5 cells/well (in the preliminary culture step) or 2×10^5 cells/well (in the proliferative culture step)
(§2) The culture medium in the preliminary culture step was a culture medium as used in Example 1, and only the concentrations of the vancomycin produced by Wako Pure Chemicals Co., Ltd.) therein were settled in the following conditions: 0.1 mg/ml, 0.5 mg/ml, 1.0 mg/ml, 1.5 mg/ml, 2.0 mg/ml, 2.5 mg/ml, 3.0 mg/ml, 4.0 mg/ml, and 5.0 mg/ml, and tests were carried out in each condition. […]
(§3) (5) The resultant test plate is quantitatively analyzed with an image analyzer, and then the unfavorable influence upon the cell proliferativity and the anticancer agent sensitivity test results (antitumor effect T/C (%): relative proliferation ratio T/C (%) between a group non-treated with anticancer agents (C) and a group treated with anticancer agents (T), in the case where the ratio is not more than 50%, it is defined as having a sensitivity.) are observed. […]

[2] = system: Lung-k human primary lung cancer cells; experiment: Confirmation test of cell toxicity according to vancomycin amount: preliminary culture step, primary cells; assay type: cell-based; details: human primary culturing cells, after 48 hours from the beginning of the culture
Description: (§4) Specifically, it is confirmed whether the vancomycin in the culture medium of the preliminary culture step has a unfavorable influence upon the cell proliferativity in the preliminary culture step, the cell proliferativity in the proliferative culture step, and the anticancer agent sensitivity test results or not, and then the following test was carried out. Herein, the unfavorable influence means such an influence as causes to decrease the cell proliferativity and success rate of the anticancer agent sensitivity test.
(§5) As to the test material and the number of cells as seeded (test material/number of cells as seeded), the following were used: • C-1 (human colon cancer cell line)/1×10^5 cells/well • A-549 (human lung cancer cell line)/1×10^5 cells/well • MKN-28 human stomach cancer cell line)/1×10^5 cells/well • HFL-1 and WI-38 (human fibroblast cells line)/1×10^5 cells/well • Lung-k human primary lung cancer cells)/5×10^5 cells/well (in the preliminary culture step) or 2×10^5 cells/well (in the proliferative culture step) […]
(§6) […] After the cells were counted with a blood-cell counter board, the cell number per 1 ml of the culture medium was calculated, and the cell proliferativity in the preliminary culture step was observed.

[3] = system: C-1, A-549, MKN-28, HFL-1 and WI-38 cell lines; experiment: Confirmation test of cell toxicity according to vancomycin amount: cell proliferativity in preliminary culture step, cell lines; assay type: cell-based, human; details: various cells, after 48 hours from the beginning of the culture
Description: as §4, §5, §6

[4] = system: C-1, A-549, MKN-28, HFL-1, WI-38 cell lines and Lung-k primary lung cancer cells; experiment: Influence of vancomycin amount upon anticancer agent sensitivity test results; assay type: cell-based, human; details: vancomycin not more than 3.0 mg/ml added in the preliminary culture step; Taxol, Taxotere, Gemcitabine, Navelbine
Text: as §1, §2, §3

Compound: CN[C@H](CC(C)C)C(=O)N[C@H]1C(=O)N[C@@H](CC(N)=O)C(=O)N[C@H]2C(=O)N[C@H]3C(=O)N[C@H](C(=O)N[C@H](C(=O)O)c4cc(O)cc(O)c4-c4cc3ccc4O)[C@H](O)c3ccc(c(Cl)c3)Oc3cc2cc(c3O[C@@H]2O[C@H](CO)[C@@H](O)[C@H](O)[C@H]2O[C@H]2C[C@](C)(N)[C@H](O)[C@H](C)O2)Oc2ccc(cc2Cl)[C@H]1O [vancomycin, vancomycin hydrochloride]
- unfavorable influence upon the cell proliferativity in the proliferative culture step [1]: not found
- vancomycin concentration at which the cell number was maintained and cell toxicity (cells-killing action) was not observed [2]: not more than 3.0 mg/ml
- vancomycin concentration at which the cell proliferation was as good as without vancomycin [3]: not more than 2.0 mg/ml
- unfavorable influence upon the anticancer agent sensitivity test results (antitumor effect T/C (%)) [4]: no unfavorable influence
